The record followed here is publication PMC12480552 (Scientific Reports, 2025).

Like-named read-outs stand apart in the source and are kept apart here. Marks after values point to notes of the source that are not given here.

The nature of one data set: in vivo. Here is the method: Female C57BL/6 mice were inoculated intracranially on the right side of the brain in the right frontal lobe with mouse glioblastoma (GL261) tumor cells (≈ 2 × 10^5) in 3 µL of phosphate-buffered saline for the tumor development. Mice were observed daily for clinical signs, and any mouse meeting predefined criteria for moribund status was euthanized. Criteria for moribund sacrifice included: ≥ 20% body weight loss or severe neurological symptoms (e.g., prostration, paralysis, seizures, hemorrhage).
Mice were euthanized by CO2 asphyxiation.
Brain tissue was weighed in polypropylene tubes, then PBS was added to the tissue sample before homogenization (1:4 wt: vol).
The LC-MS/MS system included an API-6500 triple quadrupole mass spectrometer (Sciex). Data were acquired and processed using Analyst® 1.7.2 software (Sciex). An Acquity UHPLC BEH C18 analytical column (1.7-µm, 2.1 × 50 mm; Waters) was applied in sample analysis.
For olaparib, the LLQ was 5.00 ng/mL, and the HLQ was 1000 ng/mL.
First, the brain tissue partition coefficient Kp, brain was calculated using Eq. (1).
Where Css, brain is the mean steady-state total drug concentration in brain tissue, and Css, plasma is the mean steady-state total drug concentration in plasma (both measured by LC-MS/MS). […] Finally, Kp, uu, brain was calculated using Eq. (2).2 [drawing 2]

The nature of data set [1]: LC-MS/MS bioanalysis of plasma and brain homogenate, mouse model of brain metastasis (MDA231-BrM2-831). In kind it is in vivo, NCr nude mice. Particulars: for Kp at 2 h / Kp uu at 2 h / concentration at 2 h: female, NCr nude (CrTac:NCr-Foxn1nu), mouse, oral; for concentration at 2 h: oral once daily 5 days, niraparib 35 mg/kg or olaparib 50 mg/kg, 2 h after final dose. From the text: A luciferase-transfected human breast adenocarcinoma cell line (MDA 231-BRM2-831) was used to generate a metastatic brain tumor model in female athymic nude mice. […] NCr nude mice (strain: CrTac: NCr-Foxn1^nu; female; 5–7 weeks old; Taconic Biosciences (Germantown, NY)) were used for these studies. A power analysis was completed by a statistician to determine the appropriate sample sizes for each group to measure a statistically significant. […] Control mice (n = 10) underwent a sham IC procedure (needle insertion into the ventricle without cell injection. All mice were monitored for tumor development by bioluminescence imaging (BLI) approximately once weekly for ~ 45 days, beginning 1 h after cell injection. In vivo BLI was performed at ~ 10 min post-luciferin injection (corresponding to the peak bioluminescent signal) using an IVIS Spectrum-CT system (PerkinElmer, Waltham, MA). Imaging parameters were set to automatic exposure in the Living Image software, while the binning (8) and aperture (open f-stop) remained at the default settings for all BLI acquisitions. The imaging frequency was increased to twice weekly for mice that developed brain metastases (BMs) as indicated by increased bioluminescence in the cranial region. […] The exact tumor size was not measured as an endpoint of this study. […] Two hours after the final dose, mice were euthanized by CO2 asphyxiation. At necropsy, a terminal blood sample was collected via cardia puncture, and the brains were harvested and snap-frozen by floating on liquid nitrogen. […] From each plane, serial tissue sections were collected for MALDI MSI and for H&E staining, and immunohistochemistry (IHC) staining. Tissue trimmings from between each plane were collected, homogenized, and submitted for bioanalysis in addition to the terminal plasma samples.

Where [2] appears, read: female, C57BL/6, mouse, brain tumor, oral.
The mark [3] stands for this setting: female, C57BL/6, mouse, contralateral normal brain, oral.
[4] abbreviates: female, C57BL/6, mouse, contralateral normal brain/plasma, oral.
The mark [5] stands for this setting: female, C57BL/6, mouse, normal brain, oral, 35 mg/kg.
Where [6] appears, read: brain, BM mice (niraparib n = 4, olaparib n = 3), read-out: Group mean (SD) Kp, brain.
Setting [7] is: brain, BM mice (niraparib n = 4, olaparib n = 3), read-out: Group mean (SD) Kp, uu, brain.
[8] abbreviates: brain, No BM mice (n = 3), read-out: LC-MS/MS Bulk brain tissue, mean (SD).
Setting [9] is: brain, No BM mice (n = 3), read-out: Group mean (SD) Kp, brain.
Where [10] appears, read: brain, No BM mice (n = 3), read-out: Group mean (SD) Kp, uu, brain.
Setting [11] is: brain, all mice (BM and no-BM combined), read-out: Mean Kp, brain.
[12] abbreviates: brain, all mice (BM and no-BM combined), read-out: Mean Kp, uu, brain.
The mark [13] stands for this setting: plasma, No BM mice (n = 3), read-out: LC-MS/MS Terminal plasma, mean (SD).

As for `NC(=O)c1cccc2cn(-c3ccc([C@@H]4CCCNC4)cc3)nc12` [Niraparib], the Kp at 2 h in “in vivo” (setting [2]) is 0.893; in “in vivo” (female, C57BL/6, mouse, normal brain, oral), 0.08; in data set [1] (setting [6]), 0.214; in data set [1] (setting [9]), 0.171; in data set [1] (setting [11]), 0.193. Further, the concentration at 24 h in “in vivo” (setting [2]) came to 436 ng/g; in “in vivo” (setting [3]) it was 171 ng/g. Also, the Kp at 24 h in the data set “in vivo” (female, C57BL/6, mouse, brain tumor, oral, 35 mg/kg) came to 0.465; in “in vivo” (setting [5]), 0.182. The Kp uu at 2 h in the data set “in vivo” (setting [4]) stood at 0.011; in data set [1] (setting [7]), 0.03; in data set [1] (setting [10]), 0.024; in data set [1] (setting [12]) it was 0.026. For the same compound, the Kp uu at 24 h in the data set “in vivo” (setting [5]) came to 0.025. Also, the “overall mean Kp, uu, brain, niraparib higher than olaparib” value in data set [1] (all mice (BM and no-BM combined)) is “about 1.2 fold”. For the same compound, the concentration at 2 h in data set [1] (setting [8]) was determined as 658 ng/g; in data set [1] (setting [13]), 3850 ng/mL.
On to `O=C(c1cc(Cc2n[nH]c(=O)c3ccccc23)ccc1F)N1CCN(C(=O)C2CC2)CC1` [Olaparib], for which, in the data set “in vivo” (2 h since dose, normal brain), the “Kp, brain” value is on record as 0.031. Besides, in “in vivo” (24 h since dose, n = 9, olaparib: only three of nine animals had detectable drug levels), the “Brain tumor, mean (SD)” value is 78 (92)^d ng/g. Also, the Kp at 2 h in the data set “in vivo” (setting [2]) is 0.126; in “in vivo” (setting [4]), 0.031; in data set [1] (setting [6]), 0.102; in data set [1] (setting [9]) it was 0.027; in data set [1] (setting [11]) it was 0.036. The concentration at 24 h in “in vivo” (setting [3]) was 8 ng/g. In addition, the Kp uu at 2 h is 0.02 in “in vivo” (female, C57BL/6, mouse, in vivo); 0.047 in data set [1] (setting [7]); 0.015 in data set [1] (setting [10]); 0.022 in data set [1] (setting [12]). Also, the concentration at 2 h was 5 ng/g in data set [1] (setting [8]) and 226 ng/mL in data set [1] (setting [13]).
